These results are taken from ChEMBL document CHEMBL3867476, “Novel 5-substituted 3-hydroxyphenyl and 3-nitrophenyl ethers of S-prolinol as α4β2-nicotinic acetylcholine receptor ligands” (Bioorg Med Chem Lett, 2016).

For test [1], the target named is T1, Neuronal acetylcholine receptor; alpha4/beta2 (Rattus norvegicus, UniProt P09483+P12390). In words: Displacement of [3H]-epibatidine from alpha4beta2-nACHR in rat cerebral cortex membranes preincubated for 30 mins followed by overnight incubation with [3H]-epibatine. Type of test: cell membranes, Membrane.
For test [2], the target named is Neuronal acetylcholine receptor; alpha3/beta4 (Homo sapiens, UniProt P30926+P32297). In words: Displacement of [3H]-epibatine from human alpha3beta4-nACHR expressed in […] cell membranes preincubated for 5 mins followed by overnight incubation with [3H]-epibatine by liquid scintillation counting analysis.
The subject of another test is HEK243. Description: Selectivity ratio of Ki for human alpha3beta4-nACHR expressed in […] cells to Ki for alpha4beta2-nACHR in rat cerebral cortex membranes. It counts as cell-based.
Test [3] has as its target T1, Neuronal acetylcholine receptor; alpha4/beta2. Description: Displacement of [3H]-cytisine from alpha4beta2-nACHR in rat whole brain membranes incubated for 60 mins. It counts as cell membranes, Membrane.

T1 sequence (P09483 whole entry): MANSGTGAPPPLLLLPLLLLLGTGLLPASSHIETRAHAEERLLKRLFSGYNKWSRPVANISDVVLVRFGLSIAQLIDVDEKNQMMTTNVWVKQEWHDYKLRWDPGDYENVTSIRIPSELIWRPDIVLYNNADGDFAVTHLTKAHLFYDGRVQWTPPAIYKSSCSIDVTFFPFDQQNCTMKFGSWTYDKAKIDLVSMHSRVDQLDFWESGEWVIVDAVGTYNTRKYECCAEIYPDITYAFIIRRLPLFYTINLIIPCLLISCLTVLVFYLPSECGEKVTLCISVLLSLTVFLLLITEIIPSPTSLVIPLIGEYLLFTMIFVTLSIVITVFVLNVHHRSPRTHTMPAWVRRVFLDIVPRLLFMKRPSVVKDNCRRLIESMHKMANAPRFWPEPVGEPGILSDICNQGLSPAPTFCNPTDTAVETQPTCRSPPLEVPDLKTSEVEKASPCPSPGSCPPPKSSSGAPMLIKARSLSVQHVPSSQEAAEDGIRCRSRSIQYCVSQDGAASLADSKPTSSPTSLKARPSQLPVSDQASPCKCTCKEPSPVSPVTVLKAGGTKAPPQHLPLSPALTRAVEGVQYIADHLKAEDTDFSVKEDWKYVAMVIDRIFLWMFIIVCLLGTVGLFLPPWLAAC
T1 sequence (P12390 whole entry): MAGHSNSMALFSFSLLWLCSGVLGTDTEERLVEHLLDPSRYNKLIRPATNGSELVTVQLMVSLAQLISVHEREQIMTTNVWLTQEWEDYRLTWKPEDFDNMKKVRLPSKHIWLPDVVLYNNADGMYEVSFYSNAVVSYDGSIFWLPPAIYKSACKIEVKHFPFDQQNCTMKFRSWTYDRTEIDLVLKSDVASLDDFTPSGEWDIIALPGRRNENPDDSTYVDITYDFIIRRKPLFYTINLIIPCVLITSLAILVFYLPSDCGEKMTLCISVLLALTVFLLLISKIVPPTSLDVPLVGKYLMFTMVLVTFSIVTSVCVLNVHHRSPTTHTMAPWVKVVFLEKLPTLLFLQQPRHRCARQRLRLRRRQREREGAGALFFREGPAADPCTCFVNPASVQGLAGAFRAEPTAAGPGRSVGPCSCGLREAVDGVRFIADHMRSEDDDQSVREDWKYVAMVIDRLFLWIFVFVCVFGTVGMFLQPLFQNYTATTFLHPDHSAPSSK
Sequence of Neuronal acetylcholine receptor; alpha3/beta4 (P30926 whole entry): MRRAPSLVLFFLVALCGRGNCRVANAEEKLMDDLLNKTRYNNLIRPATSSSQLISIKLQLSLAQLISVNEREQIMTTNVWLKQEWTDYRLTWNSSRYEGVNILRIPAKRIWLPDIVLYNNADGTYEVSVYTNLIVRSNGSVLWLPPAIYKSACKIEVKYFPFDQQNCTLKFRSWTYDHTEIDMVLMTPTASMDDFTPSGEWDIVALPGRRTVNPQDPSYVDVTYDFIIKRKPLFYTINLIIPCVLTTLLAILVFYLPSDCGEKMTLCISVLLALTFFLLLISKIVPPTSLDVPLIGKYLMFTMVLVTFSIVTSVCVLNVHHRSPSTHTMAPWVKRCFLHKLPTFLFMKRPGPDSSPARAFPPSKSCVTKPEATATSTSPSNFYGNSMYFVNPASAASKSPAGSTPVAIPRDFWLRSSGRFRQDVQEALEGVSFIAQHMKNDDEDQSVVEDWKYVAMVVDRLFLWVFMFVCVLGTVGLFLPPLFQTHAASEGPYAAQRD
Sequence of Neuronal acetylcholine receptor; alpha3/beta4 (P32297 whole entry): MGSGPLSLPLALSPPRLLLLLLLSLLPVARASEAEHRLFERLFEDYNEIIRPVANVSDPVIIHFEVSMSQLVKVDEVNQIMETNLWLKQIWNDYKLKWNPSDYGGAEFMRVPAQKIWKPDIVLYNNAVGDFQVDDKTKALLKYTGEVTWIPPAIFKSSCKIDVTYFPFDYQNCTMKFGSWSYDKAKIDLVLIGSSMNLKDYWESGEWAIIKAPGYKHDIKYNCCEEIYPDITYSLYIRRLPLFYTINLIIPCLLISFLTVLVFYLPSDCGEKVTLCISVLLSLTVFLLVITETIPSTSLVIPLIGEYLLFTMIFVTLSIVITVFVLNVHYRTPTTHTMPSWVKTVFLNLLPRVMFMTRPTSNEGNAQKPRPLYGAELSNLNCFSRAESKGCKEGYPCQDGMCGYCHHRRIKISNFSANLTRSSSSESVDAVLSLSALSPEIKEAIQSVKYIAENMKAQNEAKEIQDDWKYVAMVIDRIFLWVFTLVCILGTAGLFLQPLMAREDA

For the compound `CN1CCC[C@H]1COc1cc(Br)cc([N+](=O)[O-])c1`, the figures for the Ki in test [1] and in test [2] were 55 nM and 415 nM, respectively. Also, in the test with HEK243, the Ratio Ki came out at 8.

With `CN1CCC[C@H]1COc1cc(O)cc(Br)c1`, the Ki in test [1] was found to be 186 nM; in test [2], 147 nM. For the same compound, the Ratio Ki in the test with HEK243 was determined as 0.8.

`CN1CCC[C@H]1COc1cc(O)cc(-c2ccccc2)c1`: the Ki in test [1] stood at 528 nM; in test [2], 200 nM. For the same compound, the Ratio Ki in the test with HEK243 amounted to 0.4.

For `CN1CCC[C@H]1COc1cc(-c2ccccc2)cc([N+](=O)[O-])c1`, the Ki in test [1] came out at 330 nM; in test [2], 947 nM. Further, the Ratio Ki in the test on HEK243 stood at 3.

Take `CN1CCC[C@H]1COc1cc(O)cc(-c2ccc(O)cc2)c1`: the Ki in test [1] amounted to 3.8 nM; in test [2], 30 nM. Besides, the Ratio Ki in the test with HEK243 was determined as 8.

For `CN1CCC[C@H]1COc1cccc(C#CCCCCO)c1`, the Ki in test [1] turned out to be 4400 nM; in test [2], 8300 nM. Further, the Ratio Ki in the test on HEK243 is 2.

As to `CN1CCC[C@H]1COc1cc(C#CCCCCO)cc([N+](=O)[O-])c1`, the inhibitory constant (Ki) in test [1] came out at 14.2 nM; in test [2], 1200 nM. For the same compound, the Ratio Ki in the test on HEK243 stood at 85.

As to `COc1cccc(OC[C@@H]2CCCN2C)c1`, the Ki in test [1] is 600 nM; in test [2], 4500 nM. In the test with HEK243, the Ratio Ki amounted to 7.

Consider `CN1CCC[C@H]1COc1cccc([N+](=O)[O-])c1`, for which the Ki is 31.2 nM in test [1], 946 nM in test [2] and 9 nM in test [3]. The Ratio Ki with HEK243 stood at 30.

In the case of `CN1CCC[C@H]1COc1cc(-c2ccc(O)cc2)cc([N+](=O)[O-])c1`, the Ki in test [1] came to 12 nM; in test [2] it was 122 nM. Besides, in the test with HEK243, the Ratio Ki amounted to 10.

Regarding `CN1CCC[C@H]1COc1cc(O)cc(C#CCCCCO)c1`, the Ki in test [1] stood at 23.7 nM; in test [2], 3100 nM. Besides, the Ratio Ki in the test on HEK243 was 131.
